Laboratory results reported in patent US20020115613A1, “Treatment of prostate cancer” (priority 2001, published 2002).
* marks the point of attachment. Cbz = O=C(OCc1ccccc1)*; CH2F = FC*

Tests used:
[1] = test system: prostate cancer cells; details: cited from earlier work
[2] = test system: PC3AR cells; test: Induction of apoptosis / cell survival (FIG. 1E, 6A); type: cell-based; details: 5 μM hydroxyflutamide for 5 days, then 400 ng/ml TRAIL, FIG. 1E
Description: PC3AR cells are a clonal cell line derived by stable transfection of PC3 with a full-length human AR cDNA (Dai, J. L., et al., Steroids, 61, 531-539, 1996). PC3Neo cells were stably transfected with neomycin vector alone. Cells were grown in RPMI 1640 with 5% FBS (Hyclone, Logan, Utah), 100 units/ml penicillin, 100 μg/ml streptomycin, 0.25 μg/ml fungizone and G418 (350 μg/ml) to select for neomycin-resistant cells. In experiments using antiandrogens, cells were maintained in 5% DCC stripped serum for at least 48 hr before treatment with hydroxyflutamide (Sigma Chemical Co., St. Louis, Mo.). The medium and all the drugs were replaced every two days. Cells were treated with 200 ng/ml, 400 ng/ml or 600 ng/ml of TRAIL (Biomol Research Laboratories, Inc, Plymouth Meeting, Pa.) for 2, 4, 6, 8, 16 and 20 hr. Cells were treated with 5 μM hydroxyflutamide for 5 days before the commencement of treatment with 400 ng/ml TRAIL.
Two methods were used to measure induction of apoptosis by drug treatment: the MTT assay and the Apoptosense assay. The MTT assay measures mitochondrial enzyme activity and is indicative of the number of surviving cells. The Apoptosense assay is an ELISA, which utilizes M30 antibody to recognize the C-terminal domain (amino acids 387-396) of cytokeratin 18 that is exposed in apoptotic cells after cleavage by caspases.
Cells were seeded in 96-well plates (6000 cells/well) and treatment was started 24 hr after seeding the cells. After completion of the treatment, cells were incubated at 37° C. with the MTT reagent for 3 hr and processed according to manufacturers instructions (Promega Corporation, Madison, Wis.). Color development was measured at 490 nm on a Spectra MAX 340 microplate reader (Molecular Devices, Menlo Park, Calif.).

[3] = test system: LNCaP C4-2 cells; test: Western blotting of death receptors, caspases, Bid, cytochrome c, Akt; type: cell-based; details: LNCaP C4-2 treated with TRAIL and/or Mifepristone; inhibitor pre-treatment one hr; FIG. 7
Description: (§1) LNCaP were obtained from American Type Culture Collection (Rockville, Md.) and LNCaP C4-2 cells were purchased from Urocor Inc., Oklahoma City, Okla. Cells were grown in RPMI 1640 medium supplemented with 10% (LNCaP) or 5% (LNCaP C4-2) fetal bovine serum (Hyclone, Logan, Utah) and grown in the presence of 5% CO2 at 37° C. Cells were treated with 10 μM Mifepristone (Sigma, St. Louis, Mo.) for three days or with increasing concentrations (from 200 ng/ml to 600 ng/ml) of TRAIL (Biomol Research Laboratories, Inc., Plymouth Meetings, Pa.) for varying time intervals 2, 4, 6, 8, 16, 20 and 24 hours (hr). Thus, for treatment with Mifepristone, cells were treated with Mifepristone for three days and then some cells treated (without washing) with TRAIL for indicated periods. Upon completion of the experiment, cells were harvested, and total proteins, cytosol or mitochondrial fractions were isolated as described below. At least three experiments were conducted with a minimum of four plates per treatment per experiment.
(§2) For experiments using inhibitors, the cells were pre-treated with increasing concentrations of the inhibitors (10 μM to 100 μM) for one hr and then with TRAIL. Caspase-8-specific (Z-IETD-FMK) and caspase-9-specific ([…]) inhibitors were purchased from Enzyme Systems Products, Livermore, Calif. The inhibitors were dissolved in DMSO; to limit cellular toxicity, care was taken not to exceed 0.2% DMSO in the culture medium. Appropriate controls included vehicle treated cells with or without the inhibitors.
(§3) Cells were harvested by trypsinization, washed in 1×PBS and cell pellets resuspended in lysis buffer (100 mM Tris-HCl pH 8.0, 0.1% Triton X 100 and protease inhibitor cocktail from Roche Diagnostic Corporation, Indianapolis, Ind.). Cells were incubated over ice for 30 min and centrifuged at 10,000 g at 4° C. for 10 min. The supernatant was collected and the protein concentration estimated using Bio-Rad protein reagent (Bio-Rad Laboratories, Hercules, Calif.).
(§4) Proteins (50 μg, unless stated otherwise) were separated on NuPAGE 10% Bis-Tris gels (Novex pre-cast mini gels, InVitrogen, Carlsbad, Calif.) at 100 volts for 1 hour in the presence of 1×MES-SDS running buffer (InVitrogen, Carlsbad, Calif.). Separated proteins were transferred to (PVDF) membranes (Bio-Rad Laboratories, Hercules, Calif.) at 42 volts for 2.5 hr using a Novex XCell II blotting apparatus in MES transfer buffer in the presence of NuPAGE antioxidant. Transfer of the proteins to the polyvinylidene difluoride (PVDF) membrane was confirmed by staining with Ponceau S (Sigma, St. Louis, Mo.). The blots were blocked in 5% non-fat dry milk in TBS, washed twice for 10 min each with TBS containing 0.1% Tween-20 and incubated for 2 hr at RT with primary antibody diluted in TBS containing 0.5% milk.
(§5) The following antibodies were used in the immunoblots: DR4, DR5 and cytochrome c (Imgenex, San Diego, Calif.), BID (BioSource International, Camarillo, Calif.), caspases-8, -9, and Akt (Cell Signaling Technology, Beverely, Mass.), caspase-3 (BD Pharmingen, San Diego, Calif.) Iκβ and XIAP (Cell Signaling Technology, Beverly, Mass.), cFLIP (StressGen Biotechnology Corp, Victoria, Canada), actin (Sigma Chemical Co., St. Louis, Mo.) and Cox II (Molecular Probes, Eugene, Oreg.). Immunoreactive bands were visualized using ECL detection system (Amersham, Pharmacia Biotech, Arlington Heights, Ill.) and signals were developed after exposure to X-ray film (X-Omat films, Eastman Kodak Company, Rochester, N.Y.).
(§6) For separation of mitochondrial and cytosolic fractions, cells were trypsinized, centrifuged at 600 g for 10 min at 4° C., washed twice in ice-cold PBS and re-suspended in buffer A (20 mM HEPES-KOH, pH 7.2, 10 mM KCl, 1.5 mM MgC12, 1 mM sodium-EDTA, 1 mM sodium-EGTA, 250 mM sucrose and protease inhibitor cocktail). Cells were homogenized on ice with a glass Dounce homogenizer (30 strokes) and were centrifuged at 750 g for 5 min at 4° C. […]

[4] = test system: LNCaP cells; test: as above; type: cell-based; details: LNCaP treated with TRAIL and/or Mifepristone; inhibitor pre-treatment one hr; FIG. 7
Description: as §1, §2, §3, §4, §5, §6

Row | Molecule | ability to induce apoptosis in prostate cancer cells (Sridhar et al., 2001) [1] | effect of anti-androgen pre-treatment on response to TRAIL [2] | caspase-8 activation in presence of caspase inhibitor [3] | tBid in presence of caspase inhibitor [3] | caspase-8 activation in presence of caspase inhibitor [4] | tBid in presence of caspase inhibitor [4] | caspase-3 activation in presence of caspase inhibitor [3] | caspase-7 activation in presence of caspase inhibitor [3] | caspase-3 activation in presence of caspase inhibitor [4] | caspase-7 activation in presence of caspase inhibitor [4]
1 | CC/C(=C(\c1ccccc1)c1ccc(OCCN(C)C)cc1)c1ccccc1 [Tamoxifen] | marginal ability to induce apoptosis | – | – | – | – | – | – | – | – | –
2 | CC(C)(O)C(=O)Nc1ccc([N+](=O)[O-])c(C(F)(F)F)c1 [hydroxyflutamide, reference compound] | – | did not alter their response to TRAIL | – | – | – | – | – | – | – | –
3 | Cbz-IETD-CH2F | – | – | blocked activation of caspase-8 | tBid was not present | blocked activation of caspase-8 | tBid was not present | – | – | – | –
4 | Cbz-LEHD-CH2F | – | – | did not affect caspase-8 activity | significantly reduced the levels of tBid | did not affect caspase-8 activity | significantly reduced the levels of tBid | reduced caspase-3 activity | blocked activation of caspase-7 | reduced caspase-3 activity | blocked activation of caspase-7
